The source of these data is patent US10154970B2, “Methods for immunomodulation of cancer and infectious disease therapy” (The Regents of the University of California, priority 2014, dated 2018).

Assay [1] has as its system IFN-γ. The note with it: non-tumor bearing mice, 48 hours after final PV dose. Here is the method:
(§1) FIG. 6. Effect of TRIP and PV combination treatment on serum cytokine levels. Serum cytokines were assessed by multiplex immunoassay 48 hours following the final dose of PV, which was administered as 8 weekly 10-μg doses. TRIP was administered daily for the last 14 days of the study.
(§2) A total of 43 wild type C57BL/6 mice were assigned to four different treatment groups: Control (n=10); and TRIP (i.e., ospemifene) 10, 50, and 100 mg/kg (n=11, all TRIP groups). All mice received a full course of tecemotide (L-BLP25) peptide vaccine (PV) immunotherapy (eight weekly 10 μg doses administered subcutaneously (s.c.) as described in Wurz G T. et al., J. Transl. Med., 11:64 (2013)). During the final 16 days of immunotherapy, mice received daily oral doses of TRIP according to treatment group assignment. TRIP oral dosing solutions were prepared by dissolving an appropriate amount of the drug in pure dimethyl sulfoxide (DMSO) and then adding peanut oil to the desired final concentration (final DMSO concentration was 2%). All doses were administered in a volume of 100 μl using 20-gauge stainless steel oral feeding needles. Control mice were given diluent only. Forty-eight hours following the final dose of PV, all mice were euthanized for the collection of blood for cytokine analysis by multiplex and spleens for assessing immune response by enzyme-linked immunosorbent spot (ELISpot) assay.

For another assay, the system named is IL-6. Here is the method:
as §1, §2

The subject of assay [2] is IFN-γ. As to the kind of experiment: Experiment 4: IFN-γ ELISpot after short-course TRIP and PV in lung tumor-bearing mice. It is filed as in vivo, human MUC1.Tg C57BL/6 mice. The note with it: short-course (16-day) TRIP 10 or 50 mg/kg + one cycle of PV.
Description: Effect of short-course (16-day) TRIP treatment on IFN-γ immune response. […] Lymphocytes were isolated following treatment with one cycle of PV, TRIP 10 mg/kg, TRIP 50 mg/kg, or combinations (n=10-11). PV=peptide vaccine.
A total of 65 male human MUC1.Tg C57BL/6 mice underwent urethane lung tumor induction as described (Wurz G T. et al., J. Transl. Med., 11:64 (2013)) starting at approximately five weeks of age. […] Starting in Week 20, all mice in the PV treatment groups were administered eight weekly 10 μg doses by subcutaneous (s.c.) injection (100 μl) at rotating sites using a 25-gauge needle. […] All other mice received daily oral doses of the control solution. Twenty-four hours after the final dose of TRIP and 48 hours after the last dose of PV (Week 27), all mice were euthanized for the collection of serum and spleens, which were processed appropriately for ELISpot and CTL assays. For the ELISpot assay, n=4-5.
Assay [3] concerns T-cell surface markers (CD4, CD8, PD-1, CD28). As to the kind of experiment: Experiment 5: T-cell surface markers of spleen lymphocytes by flow cytometry. The note with it: TRIP 100 mg/kg or letrozole 0.8 mg/kg daily oral 14 days. It counts as in vivo, human MUC1.Tg C57BL/6 mice. How it is done:
FIG. 11. Lymphocyte phenotypes following different hormonal treatments. (A) CD3+CD4+; (B) CD3+CD8+; (C) CD3+CD28+; (D) CD8+CD28+; (E) CD3+PD-1+; and (F) CD8+PD-1+; T cell surface markers were stained with indicated antibodies after […] of TRIP (100 mg/kg), estradiol (E2; 25 μg/kg), and letrozole (0.8 mg/kg) treatments (n=8 all groups).
A total of 32 female human MUC1.Tg C57BL/6 mice, starting at approximately six weeks of age, were treated with urethane as described (Wurz G T. et al., J. Transl. Med., 11:64 (2013)). Two weeks following the final dose of urethane (Week 17), the mice were randomized into four treatment groups of approximately equal average weight (n=8, all groups): Control (no treatment); TRIP (i.e., ospemifene) 100 mg/kg; estradiol 25 μg/kg; and letrozole 0.8 mg/kg. TRIP and letrozole were prepared in DMSO and peanut oil as described above in Experiment 2 and administered daily for 14 days by oral gavage (100 μL). Estradiol was dissolved in 100% ethanol, diluted in PBS to achieve the desired concentration, and then administered daily for 14 days by s.c. injection at rotating sites using a 25-gauge needle. In Week 19, the study was terminated, 24 hours after the last treatments, and serum and spleens were collected for surface marker and Treg analyses.
After two weeks of treatment, lymphocytes were isolated from spleen. T-cell surface markers (CD4, CD8, PD-1, CD28) and regulatory T cells (Tregs) were analyzed by flow cytometry.

The next assay concerns regulatory T cell (Treg). The note with it: chronic daily TRIP 50 mg/kg + two cycles of PV. How it is done:
(§3) A total of 55 mixed-sex hMUC1.Tg C57BL/6 mice, starting at approximately five weeks of age, were treated with urethane as described above. Approximately six weeks after the last dose of urethane, mice were randomized into four treatment groups of approximately equal average weight: Control (n=22); TRIP (i.e., ospemifene) 50 mg/kg (n=16); tecemotide (L-BLP25) peptide vaccine (PV) (n=6); and TRIP+PV (n=11). At this time (Week 21), mice assigned to the […] began treatment with the first of two cycles consisting of eight weekly 10 μg doses each, with approximately four weeks between cycles. Cycle 1 was administered during Weeks 21-28, and Cycle 2 from Weeks 32-39. The PV was prepared and administered as described above. Mice in the TRIP groups began daily oral treatment in Week 31, which continued through the end of the study (approximately eight weeks of dosing). TRIP was prepared and administered as described above. Mice not assigned to TRIP treatment received daily oral doses of diluent. At the conclusion of the study, 48 h after the final dose of PV and 24 h after the last dose of TRIP, all mice were euthanized for the collection of serum and spleens, which were processed as described above for multiplex serum cytokine, Treg, and CTL analyses.

For assay [4], the system named is IFN-γ. The note with it: chronic daily TRIP 50 mg/kg + two cycles of PV. How it is done: (§4) FIG. 15. […] Antigen-specific IFN-γ immune response was assessed by ELISpot 48 hours following two cycles of peptide vaccine (PV).
as §3

Assay [5] relates to cytotoxic T lymphocyte activity. Here is the method: as §4, §3
Assay [6] has as its system IFN-γ. As to the kind of experiment: Example 6: serum IFN-γ on Day 28 in allograft-bearing mice. It is filed as in vivo, C57BL/6 wild type mice. The note with it: Day 28, 48 hours after final PV dose; TRIP 100 mg/kg.
Description: Each of four weekly 100-μg injections of peptide vaccine (PV) was preceded by three daily oral doses of TRIP (100 mg/kg). All mice were implanted with breast cancer allografts on Day 0, and serum was collected on Day 28 following four weeks of treatment. […] For all treatment groups, n=8.
A total of 32 female C57BL/6 wild type mice were assigned to four treatment groups (n=8): Control; TRIP (i.e., ospemifene) 100 mg/kg; tecemotide (L-BLP25) peptide vaccine (PV) (100 μg); and TRIP 100 mg/kg combined with 100 μg PV. On Day 0 of the study, all 32 mice were subcutaneously implanted with 1.0×10^6 mouse breast cancer cells expressing the PV target antigen (BP25). Two days later, mice began a three-day regimen of once daily 100 mg/kg TRIP administered orally. On Day 5, mice were administered their first weekly 100 μg dose of PV by subcutaneous injection. This treatment schedule was repeated for a total of four weeks. […] All mice were euthanized on Day 28 for the collection of serum and spleens to assess immune response to treatment. Immune response was assessed by performing IFN-γ ELISpot.
For assay [7], the system named is IFN-γ. The note with it: at 20 weeks (30 days), 5-mg/kg TRIP dose level.
Description: Average serum IFN-γ concentrations following daily oral TRIP treatment for 30 (Week 20), 60 (Week 24), and 90 (Week 28) days at the indicated doses (mg/kg). Serum was analyzed by multiplex immunoassay 24 hours after the final TRIP dose at each time point.
Following induction of lung cancer as described (Wurz G T. et al., J. Transl. Med., 11:64 (2013)), mice were randomized into four treatment groups: Control; and TRIP (i.e., ospemifene) 5, 25, and 50 mg/kg (n=12, all groups). TRIP and control solutions were orally administered by gavage according to treatment group. After 30 days of treatment (Week 20), a total of 16 mice, four from each treatment group, were euthanized, and whole blood was collected by cardiac puncture. The remaining mice continued daily TRIP treatments. An additional 16 mice, four from each treatment group, were euthanized following 60 (Week 24) and 90 (Week 28) days of treatment, and whole blood and livers were collected. Serum samples were subjected to multiplex cytokine analysis for TH1 (IL-2, IL-12, IFN-γ, TNF-α), TH2 (IL-4, IL-5, IL-10, IL-13) and inflammatory cytokines (MIP-1α, IP-10, MIG, IL-1β, IL-6, KC).
The test system of assay [8] is cytotoxic T lymphocyte activity. The note with it: TRIP 50 mg/kg daily oral 16 days + PV.
Description: Effects of short-course TRIP dosing regimens on cytotoxic T lymphocyte activity. Average target cell apoptosis percentages (+SEM) were assessed in control (n=10), one cycle of PV (n=11), short-course TRIP (16 days; 10 mg/kg, TRIP 10; 50 mg/kg, TRIP 50; n=11), and PV+TRIP combination (n=11) treatment groups. PV=peptide vaccine; *p<0.05.
A total of 65 male human MUC1.Tg C57BL/6 mice underwent urethane lung tumor induction as described (Wurz G T. et al., J. Transl. Med., 11:64 (2013)) starting at approximately five weeks of age. In Week 20, six weeks after the last dose of urethane, mice were randomized into six treatment groups of approximately equal average weight: Control (n=10); TRIP (i.e., ospemifene) 10 mg/kg (n=11); TRIP 50 mg/kg (n=11); tecemotide (L-BLP25) peptide vaccine (PV) alone (n=11); TRIP 10 mg/kg+PV (n=11); and TRIP 50 mg/kg+PV (n=11). Starting in Week 20, all mice in the PV treatment groups were administered eight weekly 10 μg doses by subcutaneous (s.c.) injection (100 μl) at rotating sites using a 25-gauge needle. […]
Average target cell apoptosis percentages (+SEM) were assessed in control (n=10), one cycle of PV (n=11), short-course TRIP (16 days; 10 mg/kg, TRIP 10; 50 mg/kg, TRIP 50; n=11), and PV+TRIP combination (n=11) treatment groups. […]
[9] abbreviates: chronic daily TRIP 50 mg/kg + PV.

The structures appear in SMILES notation.

Regarding `OCCOc1ccc(/C(=C(/CCCl)c2ccccc2)c2ccccc2)cc1` [TRIP, Z-2-[4-(4-chloro-1,2-diphenyl-but-1-enyl)-phenoxy]ethanol], in the assay on IFN-γ [1], the “serum IFN-γ levels, TRIP and PV vs PV alone” value is listed as “increased”. Further, the “serum concentrations of IL-6, TRIP 100 mg/kg and PV compared to PV alone” value in the assay on IL-6 (TRIP 100 mg/kg + PV) is “significantly lower”. For the same compound, in the assay on IL-6 (non-tumor bearing mice, 48 hours after final PV dose), the “serum IL-6 concentrations, TRIP and PV vs PV alone” value is listed as “dose-dependently decreased”. For the same compound, the “IFN-γ immune response by ELISpot, TRIP in combination with the PV” value in the assay on IFN-γ [2] is “equivalent increase”. Besides, the “expression of surface markers, including CD8 and CD28, vs control” value in [3] is “no difference”. The “PV-induced immune response as assessed by Treg expression” value in the assay with regulatory T cell (Treg) is “did not significantly affect”. Further, the “PV-induced, antigen-specific immune response (IFN-γ ELISpot)” value with IFN-γ [4] was “significantly decreased”. For the same compound, in assay [5] (setting [9]), the “CTL activity of the combination over that of PV alone” value is “increased CTL activity” and the “additive CTL activity in combination with PV” value was “no additive CTL activity”. Further, the “CTL activity compared to control” value in [5] (chronic daily TRIP 50 mg/kg alone) was “slightly, but not significantly increased”. In the assay on IFN-γ [6], the “serum IFN-γ compared to the control and TRIP alone treatment groups, TRIP + PV” value is “significantly increased”. For the same compound, the “serum IFN-γ” value in the assay with IFN-γ [7] was “elevated”. In addition, in assay [8], the “induction of CTL activity, PV with short-course TRIP compared to TRIP or PV treatments alone” value was “significantly boosted”.
